Tests used:
[1] = tested on: human dermal fibroblasts (HDF); assay: SAβG activity staining in senescent human fibroblasts; format: cell-based; settings: 4 days; for SAβG activity: 100 nM
Method: Each cell was treated in a serum-free culture solution containing 0.5 μM doxorubicin for 4 hours. After washing the cells with a serum-free culture solution, the cells were cultured for 4 days in a culture solution containing 10% FBS, and then cellular aging was confirmed by staining with senescence-associated beta galactosidase (SAβG). After dispensing 2×10^5 cells in a 100 mm culture dish, they were cultured in a 37° C., 5% CO2 incubator. When the cells grew to 80-90% in the culture dish, the cells were removed by treatment with trypsin-EDTA, and the number of cells was measured, and the cell population doubling time (PDT) was measured. By successively subculturing the cells in the same process as described above, replication aging was induced. PDT of young fibroblasts was 36 hours, PDT of replicative senescent fibroblasts was 12 days, PDT of young vascular endothelial cells was 24 hours, and PDT of replicative senescent vascular endothelial cells was 7 days. After each sample was dissolved in DMSO, young cells, replicative senescent cells, and premature senescent cells treated with doxorubicin were treated with 100 nM zotarolimus, 100 nM rapamycin, 100 nM ABT263, respectively. After incubation for 4 days in a 37° C., 5% CO2 incubator, the degree of cell growth was confirmed by CCK-8 analysis, the degree of cellular aging was confirmed by senescence-related beta-galactosidase (SAβG) staining, The cells were washed with 1× phosphate buffer solution, and fixed with a phosphate buffer solution containing 3.7% (v/v) paraformaldehyde. After adding 1 mg/ml 5-bromo-4-chloro-3-indolyl-6-D-galactoside, 40 mM citric acid-sodium phosphate (pH 6.0), 5 mM potassium ferricyanide, 5 mM potassium ferrocyanide, 150 mM NaCl, and 2 mM MgCl2 solution, it was reacted at 37° C. for 18 hours. It was stained with eosin as a control stain. Cells stained blue in the cytoplasm were identified using an optical microscope. Human fibroblasts were treated with doxorubicin to induce early cellular senescence. […]

[2] = tested on: pulmonary fibrosis induced by bleomycin; assay: Lung fibrosis induced by bleomycin in mice; format: in vivo, C57BL/6J mice
Method: Animal experiments were conducted with the approval of the Animal Experimental Ethics Committee, Yeungnam University College of Medicine (YUMC-AEC2018-025). After anesthetizing by injecting 2.5% avertin (Avertin; 0.025 ml/g) into the abdominal cavity of 10-week-old C57BL/6J male mice, 2 mU/g of bleomycin was instilled into the bronchi and injected into the lungs.
From 5 days after bleomycin administration, 2.5 μl of 10 mM zotarolimus was diluted in 100 μl phosphate buffer solution at intervals of 3 days and injected intraperitoneally 6 times (Zota group).
Three mice were used for each group, and lungs were excised by sacrifice 22 days after bleomycin injection and fixed in 10% formalin solution or stored frozen in liquid nitrogen.
The tissue fixed in 10% formalin solution was embedded with paraffin and cut into 4 μm to prepare a tissue sample. After removing paraffin from the tissue sample, hematoxylin-eosin staining, trichrome staining, and PAS staining were performed.
The degree of fibrosis was measured by analyzing the degree of collagen staining using the i-Solution™ software program (IMT Inc., Canada) after trichrome staining and the degree of cell senescence in tissue samples was investigated by staining lipofuscin with Sudan black B (Viegas M S, et al., European journal of histochemistry: EJH. 2007). The degree of peritoneal fibrosis was confirmed by measuring the submesothelial thickness of the peritoneal mesothelial cell layer using the NIH Image J program.

[3] = i.p. 6 times at 3-day intervals from day 5, vs PBS group

CO[C@H]1C[C@@H]2CC[C@@H](C)[C@@](O)(O2)C(=O)C(=O)N2CCCC[C@H]2C(=O)O[C@H]([C@H](C)C[C@@H]2CC[C@H](n3cnnn3)[C@H](OC)C2)CC(=O)[C@H](C)/C=C(\C)[C@@H](O)[C@@H](OC)C(=O)[C@H](C)C[C@H](C)/C=C/C=C/C=C/1C [zotarolimus]
SAβG activity ([1]; premature senescent fibroblasts by doxorubicin, vs DMSO-treated group): decreased compared to the DMSO-treated group | SAβG activity compared with rapamycin ([1]; replicative senescent fibroblasts, 100 nM each, p<0.05): significantly reduced than that of rapamycin | SAβG activity ([1]; replicative senescent fibroblasts, vs DMSO, p<0.01): significantly reduced | weight gain ([2]; before induction vs 20th day, vs NT group): significantly decreased | degree of lung fibrosis (trichrome staining) [2, 3]: statistically significantly reduced | degree of lung tissue damage (hematoxylin-eosin staining) [2, 3]: statistically significantly reduced | weight ([2]; vs PBS group): further increased compared to that of the PBS group

From patent publication US20220023271A1, “COMPOSITION FOR PREVENTING OR TREATING CELLULAR SENESCENCE-RELATED DISEASES COMPRISING ZOTAROLIMUS AS ACTIVE INGREDIENT” (RESEARCH COOPERATION FOUNDATION OF YEUNGNAM UNIVERSITY, priority 2018, published 2022)
